Assay results taken from patent publication US20100063273A1, “NOVEL CRYSTAL OF PIPERACILLIN SODIUM” (Toyama Chemical Co., Ltd, priority 2007, published 2010).

Assays:
Assay type in all cases: physicochemical
Hygroscopic test = details: for Ratio of change of weight: 25° C., three days; for Hygroscopic (moisture absorption) stability compared with the amorphous body: result in words
Method: (§1) As test substances, the V type crystal (Example 1), the VI type crystal (Example 2) and the amorphous body (Comparative example 1) were used.
Test substances were allowed to stand at 25° C. for three days under 7, 11, 22, 33 and 57% relative humidity, the content of moisture was measured according to Japanese pharmacopoeia, general tests, water determination method (Karl Fischer's method) and the changes of weight were calculated.

[1] = Purity stability test (storage at 60° C.); details: for Purity stability: 60° C. storage, result in words
Method: as §1
Test substance 2.2 g was put in a C2 vial made by Daiichi Glass Co., Ltd., and after the vial was filled with nitrogen gas, the vial was stored at 60° C. After the initiation of the test, the purity of each test substances was measured by high-performance liquid chromatographic method at 1 week, 2 weeks and 4 weeks later (a notice of the 340th Apr. 4, 2001 by Ministry of Health and Welfare medicinal safe directors of bureaus).

[2] = Coloration stability test (storage at 60° C.); details: for Coloration stability of exterior appearance: 60° C. storage, result in words
Method: as §1
Test substance 2.2 g was put in a C2 vial made by Daiichi Glass Co., Ltd., and after the vial was filled with nitrogen gas, the vial was stored at 60° C. After the initiation of the test, the color difference (ΔE), degree of whiteness (W) and yellowness (YI) of each test substances were measured by a color-difference meter at 1 week, 2 weeks and 4 weeks later.

[3] = Light exposure stability test; details: for By-product I / Piperacillin / Total amount of relative substances: Initiation of test
Method: As test substances, the VI type crystal (Example 2) and the amorphous body (Comparative example 1) were used.
Test substance 2.2 g was put in a C2 vial made by Daiichi Glass Co., Ltd., and after the vial was filled with nitrogen gas, the vial was radiated ([…] 1×/hr) with D65 lamp (FLR20S-D-EDL-D65/M) at 25° C.
After the initiation of the test and the radiation of […] 1×/hr, the purity of each test substances was measured by high-performance liquid chromatographic method (a notice of the 340th Apr. 4, 2001 by Ministry of Health and Welfare medicinal safe directors of bureaus).

[4] = Light exposure stability test; details: D65 lamp, 25° C., 1.20 million lx·hr
Dissolution test = details: for Dissolution time: 2.2 g in injectable water 10 mL, shaken, complete dissolution by unaided eye, mean of three, sodium monohydrate; for Dissolution compared with the amorphous body: result in words
Method: as §1
Test substance 2.2 g was put in a C2 vial made by Daiichi Glass Co., Ltd., injectable water 10 mL was added to the vial, the vial was fixed laterally and was shaken by MRK incubator-shaker (4 cm of shaking width, 48 times/minute of shaking rate).
Complete dissolution was judged by an unaided eye, and the length of time to need for the complete dissolution was measured.
The test was carried out at three times respectively, and those mean values were assumed to the dissolution time.

[5] = 60° C., 1 week, nitrogen-filled vial
[6] = 60° C., 2 weeks, nitrogen-filled vial
[7] = 60° C., 4 weeks, nitrogen-filled vial
[8] = 7% relative humidity, sodium monohydrate
[9] = 11% relative humidity, sodium monohydrate
[10] = 22% relative humidity, sodium monohydrate
[11] = 33% relative humidity, sodium monohydrate
[12] = 57% relative humidity, sodium monohydrate
[13] = 60° C., 1 week, nitrogen-filled vial, sodium monohydrate
[14] = 60° C., 2 weeks, nitrogen-filled vial, sodium monohydrate
[15] = 60° C., 4 weeks, nitrogen-filled vial, sodium monohydrate
[16] = Initiation of test, sodium monohydrate
[17] = 60° C., 1 week, sodium monohydrate
[18] = 60° C., 2 weeks, sodium monohydrate
[19] = 60° C., 4 weeks, sodium monohydrate

CCN1CCN(C(=O)N[C@@H](C(=O)N[C@@H]2C(=O)N3[C@@H]2SC(C)(C)[C@@H]3C(=O)[O-])c2ccccc2)C(=O)C1=O.[Na+] [Comparative example 1, piperacillin sodium]
Ratio of change of weight (Hygroscopic test; 7% relative humidity): 2.20 w/w % | Ratio of change of weight (Hygroscopic test; 11% relative humidity): 3.12 w/w % | Ratio of change of weight (Hygroscopic test; 22% relative humidity): 4.99 w/w % | Ratio of change of weight (Hygroscopic test; 33% relative humidity): 6.78 w/w % | Ratio of change of weight (Hygroscopic test; 57% relative humidity): 11.03 w/w % | By-product I [1, 5]: 0.80 | Decomposition product I [1, 5]: 0.13 | Piperacillin [1, 5]: 98.27 | By-product I [1, 6]: 0.97 | Decomposition product I [1, 6]: 0.17 | Piperacillin [1, 6]: 98.05 | By-product I [1, 7]: 1.21 | Decomposition product I [1, 7]: 0.30 | Piperacillin [1, 7]: 97.04 | By-product I ([1]; Initiation of test): 0.22 | Decomposition product I ([1]; Initiation of test): 0.01 | Piperacillin ([1]; Initiation of test): 99.51 | Color difference (ΔE) ([2]; 60° C., 1 week): 2.76 | Degree of whiteness (W) ([2]; 60° C., 1 week): 94.66 | Degree of yellowness (YI) ([2]; 60° C., 1 week): 6.51 | Color difference (ΔE) ([2]; 60° C., 2 weeks): 4.27 | Degree of whiteness (W) ([2]; 60° C., 2 weeks): 93.29 | Degree of yellowness (YI) ([2]; 60° C., 2 weeks): 8.97 | Color difference (ΔE) ([2]; 60° C., 4 weeks): 5.73 | Degree of whiteness (W) ([2]; 60° C., 4 weeks): 91.87 | Degree of yellowness (YI) ([2]; 60° C., 4 weeks): 11.25 | Degree of whiteness (W) ([2]; Initiation of test): 96.86 | Degree of yellowness (YI) ([2]; Initiation of test): 2.17 | By-product I [3]: 0.23 | Piperacillin [3]: 99.10 | Total amount of relative substances [3]: 0.90 | By-product I [4]: 0.31 | Piperacillin [4]: 98.86 | Total amount of relative substances [4]: 1.14

CCN1CCN(C(=O)N[C@@H](C(=O)N[C@@H]2C(=O)N3[C@@H]2SC(C)(C)[C@@H]3C(=O)O)c2ccccc2)C(=O)C1=O [Example 1, piperacillin sodium monohydrate]
Dissolution time (Dissolution test): 43 s | Dissolution compared with the amorphous body (Dissolution test): dissolved in a short period of time than the amorphous body | Ratio of change of weight (Hygroscopic test; [8]): 0 w/w % | Ratio of change of weight (Hygroscopic test; [9]): 0.93 w/w % | Ratio of change of weight (Hygroscopic test; [10]): 3.18 w/w % | Ratio of change of weight (Hygroscopic test; [11]): 4.77 w/w % | Ratio of change of weight (Hygroscopic test; [12]): 8.43 w/w % | Hygroscopic (moisture absorption) stability compared with the amorphous body (Hygroscopic test; listed as V type crystal, sodium monohydrate): superior in the moisture absorption stability to the amorphous body | Purity stability [1]: stable | By-product I [1, 13]: 0.21 | Decomposition product I [1, 13]: 0.03 | Piperacillin [1, 13]: 99.66 | By-product I [1, 14]: 0.33 | Decomposition product I [1, 14]: 0.08 | Piperacillin [1, 14]: 99.37 | By-product I [1, 15]: 0.59 | Decomposition product I [1, 15]: 0.26 | Piperacillin [1, 15]: 98.62 | Decomposition product I ([1]; Initiation of test): Not detected | By-product I [1, 16]: 0.04 | Piperacillin [1, 16]: 99.92 | Coloration stability of exterior appearance [2]: stable | Color difference (ΔE) [2, 17]: 0.60 | Degree of whiteness (W) [2, 17]: 96.64 | Degree of yellowness (YI) [2, 17]: 1.77 | Color difference (ΔE) [2, 18]: 0.69 | Degree of whiteness (W) [2, 18]: 96.55 | Degree of yellowness (YI) [2, 18]: 1.96 | Color difference (ΔE) [2, 19]: 1.33 | Degree of whiteness (W) [2, 19]: 96.20 | Degree of yellowness (YI) [2, 19]: 3.03 | Degree of whiteness (W) [2, 16]: 96.45 | Degree of yellowness (YI) [2, 16]: 0.94

CCN1CCN(C(=O)N[C@@H](C(=O)N[C@@H]2C(=O)N3[C@@H]2SC(C)(C)[C@@H]3C(=O)O)c2ccccc2)C(=O)C1=O [Example 2, piperacillin sodium monohydrate]
Dissolution time (Dissolution test): 50 s | Dissolution compared with the amorphous body (Dissolution test): dissolved in a short period of time than the amorphous body | Ratio of change of weight (Hygroscopic test; [8]): 1.16 w/w % | Ratio of change of weight (Hygroscopic test; [9]): 1.54 w/w % | Ratio of change of weight (Hygroscopic test; [10]): 3.14 w/w % | Ratio of change of weight (Hygroscopic test; [11]): 3.98 w/w % | Ratio of change of weight (Hygroscopic test; [12]): 5.28 w/w % | Hygroscopic (moisture absorption) stability compared with the amorphous body (Hygroscopic test; listed as VI type crystal, sodium monohydrate): superior in the moisture absorption stability to the amorphous body | Purity stability [1]: stable | By-product I [1, 13]: 0.07 | Decomposition product I [1, 13]: 0.01 | Piperacillin [1, 13]: 99.82 | By-product I [1, 14]: 0.11 | Decomposition product I [1, 14]: 0.02 | Piperacillin [1, 14]: 99.75 | By-product I [1, 15]: 0.11 | Decomposition product I [1, 15]: 0.04 | Piperacillin [1, 15]: 99.73 | Decomposition product I ([1]; Initiation of test): Not detected | By-product I [1, 16]: 0.02 | Piperacillin [1, 16]: 99.94 | Coloration stability of exterior appearance [2]: stable | Color difference (ΔE) [2, 17]: 0.39 | Degree of whiteness (W) [2, 17]: 95.64 | Degree of yellowness (YI) [2, 17]: 1.35 | Color difference (ΔE) [2, 18]: 0.54 | Degree of whiteness (W) [2, 18]: 95.60 | Degree of yellowness (YI) [2, 18]: 1.64 | Color difference (ΔE) [2, 19]: 0.79 | Degree of whiteness (W) [2, 19]: 95.57 | Degree of yellowness (YI) [2, 19]: 2.02 | Degree of whiteness (W) [2, 16]: 95.94 | Degree of yellowness (YI) [2, 16]: 0.85 | By-product I [3]: 0.15 | Piperacillin [3]: 99.81 | Total amount of relative substances [3]: 0.19 | Light exposure stability ([3]; result in words): stable | By-product I [4]: 0.14 | Piperacillin [4]: 99.73 | Total amount of relative substances [4]: 0.27

CCN1CCN(C(=O)N[C@@H](C(=O)N[C@@H]2C(=O)N3[C@@H]2SC(C)(C)[C@@H]3C(=O)O)c2ccccc2)C(=O)C1=O [III type crystal, piperacillin sodium monohydrate]
Dissolution compared with the amorphous body (Dissolution test): dissolved in a short period of time than the amorphous body | Hygroscopic (moisture absorption) stability compared with the amorphous body (Hygroscopic test; sodium monohydrate): superior in hygroscopic stability to the amorphous body
